# Source: patent publication US9340478B2, “Cooling agent and TRPM8 activator” (Kao Corporation, priority 2011, dated 2016)
# pEC50: −log10 of the molar value.
# Target: T1, human TRPM8 (Homo sapiens, UniProt Q7Z2W7)
# T1 construct: A full-length human TRPM8 gene was amplified from human prostatic tissue total RNA; expressed in transfected cells; host or cells: HEK293
# Assay: TRPM8 activating action, fluorescent calcium imaging in HEK293 cell line stably expressing human TRPM8
# Type: cell-based
# Conditions: HEK293 cells expressing human TRPM8; Fluo4 calcium imaging at 32° C.; 1 nM to 100 μM; Hill's equation fit
# Procedure: The EC50 value in connection with the TRPM8 activating action of a test sample was measured according to the following procedure.
# (1) Production of Cell Line Stably Expressing Human TRPM8
# In order to produce a HEK293 cell line stably expressing human TRPM8, cloning of human TRPM8 gene was carried out. A full-length human TRPM8 gene was amplified from human prostatic tissue total RNA (manufactured by Cosmobio Co., Ltd.) using an RT-PCR method.
# The PCR product thus obtained was cloned into an entry vector pENTR-D/TOPO (manufactured by Invitrogen, Inc.), and then was sub-cloned into pCDNA3.2-V5/DEST (manufactured by Invitrogen, Inc.), The vector was transduced into HEK293 cells by means of LIPOFECTAMINE 2000 (manufactured by Invitrogen, Inc.). The transduced cells were proliferated in DMEM medium containing 450 μg/mL of G-418 (Promega Corp.) and screened.
# Measurement of the activity of TRPM8 transduced into HEK293 cells was carried out by a fluorescent calcium imaging method.
# First, the cultured TRPM8 expressing cells were seeded (30,000 cells/well) in a 96-well plate coated with poly-D-lysine (manufactured by BD Biosciences Co.), the cells were incubated overnight at 37° C., and then the culture fluid was removed. Fluo4-AM liquid (manufactured by Dojindo Molecular Technologies, Inc.; CALCIUM KIT II) was added thereto, and the cells were incubated for 30 to 60 minutes at 37° C. Thereafter, the 96-well plate was mounted on a fluorescence plate reader (FDSS3000; manufactured by Hamamatsu Photonics K.K.), and while the temperature inside the apparatus chamber was maintained at 32° C., a fluorescent image made by Fluo4 when excited at an excitation wavelength of 480 nm, was captured at a detection wavelength of 520 nm using a CCD camera.
# Measurement was carried out at every one second for 4 minutes in total. 15 seconds after the initiation of measurement, a test sample (prepared by dissolving each of the compounds indicated in the following Table 1 in ethanol) was added through a dispenser equipped in FDSS3000, and the activity of TRPM8 was evaluated based on the change in fluorescence intensity.
# (3) Evaluation of TRPM8 Activation
# For the TRPM8 activity, the intrinsic fluorescence was excluded using the following formula, so as to eliminate the influence of intrinsic fluorescence caused by the test sample. Fluorescence intensity excluding intrinsic fluorescence(Fsub)=(Fluorescence intensity of TRPM8 expressing cells at each time point)−{(fluorescence intensity of HEK293 cells at each time point)−(fluorescence intensity of HEK293 cells at the time of measurement initiation)}
# Furthermore, the TRPM8 activating action induced by each sample was evaluated using the peak of the fluorescence intensity ratio after the addition of the test sample. The fluorescence intensity ratio was calculated using the following formula. Fluorescence intensity ratio=Fsub at each time point/at the time of measurement initiation
# The evaluation was carried out using two wells per each treated group, and the average value was used.
# The TRPM8 activating action of each test sample was evaluated at a final concentration in the range of 1 nM to 100 μM, and a dose dependent curve approximating Hill's equation by the least square method was determined.
# T1 sequence (Q7Z2W7 whole entry): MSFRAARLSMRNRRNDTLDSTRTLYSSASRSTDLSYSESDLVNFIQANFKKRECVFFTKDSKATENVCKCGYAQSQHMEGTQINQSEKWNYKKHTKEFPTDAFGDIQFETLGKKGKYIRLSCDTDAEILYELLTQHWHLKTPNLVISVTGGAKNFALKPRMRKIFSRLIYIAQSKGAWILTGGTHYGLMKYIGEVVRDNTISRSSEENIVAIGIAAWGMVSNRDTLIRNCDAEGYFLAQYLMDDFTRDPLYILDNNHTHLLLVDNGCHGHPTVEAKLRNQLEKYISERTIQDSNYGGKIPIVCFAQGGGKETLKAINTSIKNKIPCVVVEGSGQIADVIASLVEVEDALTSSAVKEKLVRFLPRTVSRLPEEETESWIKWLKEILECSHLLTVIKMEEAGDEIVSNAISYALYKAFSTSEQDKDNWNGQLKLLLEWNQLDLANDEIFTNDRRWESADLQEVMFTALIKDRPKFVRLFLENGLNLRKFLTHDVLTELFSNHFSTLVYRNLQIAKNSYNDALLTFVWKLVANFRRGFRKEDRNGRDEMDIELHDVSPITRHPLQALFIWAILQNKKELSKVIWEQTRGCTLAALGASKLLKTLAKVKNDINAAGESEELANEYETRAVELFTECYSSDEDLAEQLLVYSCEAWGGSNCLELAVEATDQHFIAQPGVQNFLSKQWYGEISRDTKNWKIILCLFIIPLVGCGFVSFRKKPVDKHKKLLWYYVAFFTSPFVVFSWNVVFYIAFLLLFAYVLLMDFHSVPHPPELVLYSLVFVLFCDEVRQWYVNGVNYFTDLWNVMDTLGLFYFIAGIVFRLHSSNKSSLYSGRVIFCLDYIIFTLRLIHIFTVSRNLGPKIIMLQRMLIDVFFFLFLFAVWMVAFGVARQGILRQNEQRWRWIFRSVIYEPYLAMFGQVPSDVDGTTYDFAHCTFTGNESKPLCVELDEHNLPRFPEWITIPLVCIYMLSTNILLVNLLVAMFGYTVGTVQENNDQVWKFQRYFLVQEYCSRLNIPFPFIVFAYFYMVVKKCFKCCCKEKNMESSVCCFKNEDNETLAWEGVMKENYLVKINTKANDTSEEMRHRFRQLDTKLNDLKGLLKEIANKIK
row,SMILES,pEC50
1,"C=CCc1cc(OC)c(O[C@H](C)[C@H](OCCCC)c2ccc(O)c(OC)c2)c(OC)c1 (relative stereo) [Threo-form (20), Threo-Δ8′-7-butoxy-4-hydroxy-3,3′,5′-trimethoxy-8-O-4′-neolignan]",7.37
2,"C/C=C/c1ccc(OC(C)C(OCC)c2ccc(O)c(OC)c2)c(OC)c1 (centres unmarked) [Mixture (36), Δ8′-7-ethoxy-4-hydroxy-3,3′-dimethoxy-1′-propenyl-8-O-4′-neolignan]",4.91
3,"CCOC(c1ccc(O)c(OC)c1)C(C)Oc1ccccc1OC (centres unmarked) [Mixture (38), 4-[1-ethoxy-2-(2-methoxyphenoxy)propyl]-2-methoxyphenol]",4.25
4,"C=CCc1cc(OC)c(OC(C)C(OC2CCCCC2)c2ccc(O)c(OC)c2)c(OC)c1 (centres unmarked) [Mixture (29), Δ8′-7-Cyclohexoxy-4-hydroxy-3,3′,5′-trimethoxy-8-O-4′-neolignan]",7.35
5,"C=CCc1cc(OC)c(OC(C)C(OCC(C)C)c2ccc(O)c(OC)c2)c(OC)c1 (centres unmarked) [Mixture (25), Δ8′-7-Isobutoxy-4-hydroxy-3,3′,5′-trimethoxy-8-O-4′-neolignan]",6.95
6,"C=CCc1cc(OC)c(OC(C)C(OC(C)(C)C)c2ccc(O)c(OC)c2)c(OC)c1 (centres unmarked) [Mixture (31), Δ8′-7-t-Butoxy-4-hydroxy-3,3′,5′-trimethoxy-8-O-4′-neolignan]",7.40
7,"C=CCc1cc(OC)c(OC(C)C(OCCOCCCC)c2ccc(O)c(OC)c2)c(OC)c1 (centres unmarked) [Mixture (32), Δ8′-7-Oxybutoxyethyl-4-hydroxy-3,3′,5′-trimethoxy-8-O-4′-neolignan]",6.88
8,"C=CCc1ccc(OC(C)Cc2ccc(O)c(OC)c2)c(OC)c1 (centres unmarked) [Mixture (34), Δ8′-4-Hydroxy-3,3′-dimethoxy-8-O-4′-neolignan]",5.23
9,"C=CCc1cc(OC)c(O[C@@H](C)[C@H](OCCCC)c2ccc(O)c(OC)c2)c(OC)c1 (relative stereo) [Erythro-form (19), Erythro-Δ8′-7-butoxy-4-hydroxy-3,3′,5′-trimethoxy-8-O-4′-neolignan]",6.24
10,"C=CCc1cc(OC)c(OC(C)C(OCCCCCCCC)c2ccc(O)c(OC)c2)c(OC)c1 (centres unmarked) [Mixture (27), Δ8′-7-Octoxy-4-hydroxy-3,3′,5′-trimethoxy-8-O-4′-neolignan]",7.06

# Next, values leading:
row,pEC50,SMILES
1,6.21,"C=CCc1cc(OC)c(O[C@H](C)[C@H](OCC)c2ccc(O)c(OC)c2)c(OC)c1 [7R8R-form (2a), (7R,8R)-Δ8′-7-ethoxy-4-hydroxy-3,3′,5′-trimethoxy-8-O-4′-neolignan]"
2,5.62,"C=CCc1cc(OC)c(OC(C)C(OC)c2ccc(O)c(OC)c2)c(OC)c1 (mixture of isomers) [Mixture (18), Δ8′-4-hydroxy-3,3′,5′,7-tetramethoxy-8-O-4′-neolignan]"
3,6.70,"C=CCc1cc(OC)c(OC(C)C(OCC)c2ccc(O)c(OC)c2)c(OC)c1 (single isomer, unassigned) [Threo-form (2), threo-Δ8′-7-ethoxy-4-hydroxy-3,3′,5′-trimethoxy-8-O-4′-neolignan]"
4,6.01,"C=CCc1cc(OC)c(O[C@H](C)[C@@H](OCC)c2ccc(O)c(OC)c2)c(OC)c1 [7S8R-form (1b), (7S,8R)-Δ8′-7-ethoxy-4-hydroxy-3,3′,5′-trimethoxy-8-O-4′-neolignan]"
5,7.12,"C=CCc1cc(OC)c(OC(C)C(OC(C)C)c2ccc(O)c(OC)c2)c(OC)c1 (centres unmarked) [Mixture (24), Δ8′-7-isopropoxy-4-hydroxy-3,3′,5′-trimethoxy-8-O-4′-neolignan]"
6,5.59,"C=CCc1cc(OC)c(O[C@@H](C)[C@H](OC(C)=O)c2ccc(O)c(OC)c2)c(OC)c1 (relative stereo) [Erythro-form (23), erythro-Δ8′-7-acetyl-4-hydroxy-3,3′,5′-trimethoxy-8-O-4′-neolignan]"
7,5.80,"C=CCc1cc(OC)c(OC(C)C(OCC)c2ccc(O)c(OC)c2)c(OC)c1 (single isomer, unassigned) [Erythro-form (1), erythro-Δ8′-7-ethoxy-4-hydroxy-3,3′,5′-trimethoxy-8-O-4′-neolignan]"
8,6.51,"C=CCc1cc(OC)c(OC(C)C(OCC)c2ccc(O)c(OC)c2)c(OC)c1 (centres unmarked) [Mixture (15), Δ8′-7-ethoxy-4-hydroxy-3,3′,5′-trimethoxy-8-O-4′-neolignan]"
9,6.84,"C=CCc1cc(OC)c(OC(C)C(OCc2ccccc2)c2ccc(O)c(OC)c2)c(OC)c1 (centres unmarked) [Mixture (30), Δ8′-7-Benzyloxy-4-hydroxy-3,3′,5′-trimethoxy-8-O-4′-neolignan]"
10,7.21,"C=CCc1cc(OC)c(OC(C)C(OCCCCCCCCCC)c2ccc(O)c(OC)c2)c(OC)c1 (centres unmarked) [Mixture (28), Δ8′-7-Decoxy-4-hydroxy-3,3′,5′-trimethoxy-8-O-4′-neolignan]"
11,6.66,"C=CCc1cc(OC)c(OC(C)C(OCCCCCC)c2ccc(O)c(OC)c2)c(OC)c1 (centres unmarked) [Mixture (26), Δ8′-7-Hexoxy-4-hydroxy-3,3′,5′-trimethoxy-8-O-4′-neolignan]"
12,5.91,"C=CCc1cc(OC)c(O[C@@H](C)[C@H](OCC)c2ccc(O)c(OC)c2)c(OC)c1 [7R8S-form (1a), (7R,8S)-Δ8′-7-ethoxy-4-hydroxy-3,3′,5-trimethoxy-8-O-4′-neolignan]"
13,7.06,"C=CCc1cc(OC)c(O[C@@H](C)[C@@H](OCC)c2ccc(O)c(OC)c2)c(OC)c1 [7S8S-form (2b), (7S,8S)-Δ8′-7-ethoxy-4-hydroxy-3,3′,5′-trimethoxy-8-O-4′-neolignan]"
